GI50 and TGI data for 14 compounds are collected here from PubChem BioAssay (NCI).

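Compound exposure: 48 hours, 5 concentrations, 96-well plates. GI50 is the concentration that inhibits growth by half. TGI: concentration producing complete growth inhibition.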

Among the test systems are CAKI-1 renal; COLO 205 colon; K-562 leukemia; MALME-3M melanoma; MDA-MB-435; SF-268 CNS; SF-295 CNS; UACC-257 melanoma; A498 renal; SR leukemia.
What all share (experiment): DTP human tumour cell line panel, 48 h

`COC1=C(Br)C(=O)C2=C(C1=O)C1C3=C(C(=O)C=CC3=O)C2c2ccccc21` (stereo not drawn): the GI50 was 15.6 µM in the assay with CAKI-1 renal; 12.3 µM in the assay on COLO 205 colon; 4.66 µM in the assay on K-562 leukemia; 27.8 µM with MALME-3M melanoma; 18.2 µM with MDA-MB-435; 18.2 µM in the assay with SF-268 CNS. For the same compound, the results for the GI50 in the assay on SF-295 CNS and in the assay on UACC-257 melanoma were 24.1 µM and 38.2 µM, respectively. For the same compound, the TGI with CAKI-1 renal is 38.4 µM; in the assay on COLO 205 colon it was 44.9 µM; in the assay on K-562 leukemia, above 100 µM; in the assay on MALME-3M melanoma, 56.8 µM; in the assay with MDA-MB-435, 36.3 µM; with SF-268 CNS it was 59.6 µM. Besides, the figures for the TGI in the assay on SF-295 CNS and in the assay on UACC-257 melanoma were 48.9 µM and above 100 µM, respectively.
`CNCCCNCCCN1C(=O)c2ccc3c4c(ccc(c24)C1=O)C(=O)N(CCCNCc1ccccc1OC)C3=O`: the GI50 in the assay on A498 renal is 1540 nM; in the assay with COLO 205 colon, 0.498 µM; in the assay on K-562 leukemia it was 0.408 µM; in the assay on MALME-3M melanoma, 0.633 µM; in the assay on MDA-MB-435 it was 1.07 µM; in the assay with SF-268 CNS it was 1.03 µM. For the same compound, the GI50 was 0.894 µM with SF-295 CNS, 270 nM in the assay on SR leukemia and 1.35 µM in the assay on UACC-257 melanoma. The TGI in the assay on A498 renal was 8.91 µM; in the assay on COLO 205 colon it was 1.85 µM; in the assay on K-562 leukemia it was 2.9 µM; with MALME-3M melanoma, 1.96 µM; in the assay with MDA-MB-435 it was 2.91 µM; in the assay on SF-268 CNS it was 9.02 µM. For the same compound, the TGI in the assay with SF-295 CNS was 2.39 µM; in the assay with SR leukemia, 2.45 µM; with UACC-257 melanoma it was 2.72 µM.
As for `COc1ccc(/C=C/NC=O)cc1`, the TGI in the assay with A498 renal, in the assay with COLO 205 colon, with K-562 leukemia, with MALME-3M melanoma, with MDA-MB-435 and in the assay on SF-268 CNS was above 100 µM each time. Further, the TGI in the assay with SF-295 CNS, in the assay on SR leukemia and with UACC-257 melanoma was above 100 µM in each case.
In the case of `CCNCCCn1c2c(c3ccc([N+](=O)[O-])cc3c1=O)C(=O)c1cc(OC)cnc1-2`, the GI50 with CAKI-1 renal is 0.0406 µM; in the assay with COLO 205 colon, 0.0874 µM; in the assay with K-562 leukemia it was 0.0522 µM; in the assay with MALME-3M melanoma, 0.162 µM; with MDA-MB-435 it was 0.133 µM; in the assay with SF-268 CNS, 0.0527 µM. Besides, the GI50 in the assay on SF-295 CNS was 0.0421 µM; in the assay with UACC-257 melanoma it was 0.157 µM. Moreover, the TGI in the assay on CAKI-1 renal was found to be 2.3 µM; with COLO 205 colon it was 1.67 µM; in the assay with K-562 leukemia it was 1.65 µM; in the assay on MALME-3M melanoma, 0.715 µM; in the assay on MDA-MB-435 it was 0.744 µM; with SF-268 CNS it was 1.5 µM. Further, the TGI with SF-295 CNS is 0.496 µM; in the assay with SR leukemia, 1.27 µM; with UACC-257 melanoma it was 0.92 µM.
With `COc1ccc(N(/C=C/C(=O)C(F)(F)F)CC(=O)c2ccc(Cl)c(Cl)c2)cc1`, the GI50 was 10100 nM with A498 renal; 15.6 µM in the assay with CAKI-1 renal; 20.2 µM in the assay with COLO 205 colon; 4.07 µM in the assay with K-562 leukemia; 39.7 µM in the assay with MALME-3M melanoma; 12.1 µM in the assay on MDA-MB-435. The GI50 is 11.3 µM in the assay with SF-268 CNS, 14.5 µM with SF-295 CNS and 16.7 µM in the assay on UACC-257 melanoma. Moreover, the TGI was 22.2 µM in the assay with A498 renal; 34.7 µM in the assay with CAKI-1 renal; 39.6 µM in the assay with COLO 205 colon; above 100 µM in the assay with K-562 leukemia; above 100 µM in the assay with MALME-3M melanoma; 25.4 µM in the assay with MDA-MB-435. Also, the TGI in the assay with SF-268 CNS stood at 30.3 µM; in the assay on SF-295 CNS it was 28.6 µM; in the assay on UACC-257 melanoma, 35.4 µM.
For `N#Cc1c(N)nc(N2CCOCC2)c(C#N)c1-c1ccccc1Cl`, the GI50 in the assay with A498 renal was 2280 nM; in the assay with CAKI-1 renal, 32.4 µM; with COLO 205 colon, 38.1 µM; in the assay on K-562 leukemia, 60.9 µM; in the assay with MDA-MB-435 it was 80.2 µM; in the assay with SF-268 CNS, 25.4 µM. The GI50 is 38.5 µM in the assay on SF-295 CNS and 47.9 µM in the assay on UACC-257 melanoma. Besides, the TGI is 25.2 µM in the assay with A498 renal; above 100 µM in the assay on CAKI-1 renal; above 100 µM with COLO 205 colon; above 100 µM in the assay on K-562 leukemia; above 100 µM in the assay with MDA-MB-435; 85.7 µM in the assay with SF-268 CNS. Besides, the TGI in the assay with SF-295 CNS and with UACC-257 melanoma was above 100 µM throughout.
For `COc1ccc(N(C)c2c3ccccc3nc3[nH]c4ccccc4c23)cc1`, the GI50 in the assay with A498 renal is 939 nM; in the assay on CAKI-1 renal, 0.774 µM; with COLO 205 colon it was 0.347 µM; with K-562 leukemia, 0.558 µM; in the assay on MDA-MB-435, 1.12 µM; with SF-268 CNS, 0.373 µM. In addition, the results for the GI50 in the assay on SF-295 CNS, in the assay with SR leukemia and in the assay with UACC-257 melanoma were 0.387 µM, 186 nM and 3.48 µM, respectively. In addition, the TGI in the assay on A498 renal turned out to be 2.61 µM; with CAKI-1 renal, 3.07 µM; in the assay with COLO 205 colon, 6.13 µM; in the assay on K-562 leukemia, 16.3 µM; with MDA-MB-435, 3.22 µM; in the assay with SF-268 CNS, 2.27 µM. The TGI in the assay with SF-295 CNS is 2.59 µM; with SR leukemia, 50 µM; in the assay on UACC-257 melanoma it was 10 µM.
In the case of `CC(=O)OC1Oc2ccccc2-c2oc(=O)c(-c3cc4ccccc4oc3=O)cc21` (stereo not drawn), the GI50 with A498 renal is 18800 nM; with CAKI-1 renal it was 26.9 µM; in the assay on COLO 205 colon, 35.5 µM; with K-562 leukemia, 27.6 µM; in the assay with MALME-3M melanoma, 13.9 µM; with MDA-MB-435 it was 22.3 µM. Moreover, the GI50 with SF-268 CNS is 19.6 µM; with SF-295 CNS, 18.6 µM; in the assay on UACC-257 melanoma, 14.1 µM. Also, the TGI in the assay on A498 renal was 43.9 µM; in the assay with CAKI-1 renal, 66.1 µM; with COLO 205 colon, above 100 µM; in the assay with K-562 leukemia, above 100 µM; in the assay on MALME-3M melanoma, 36.5 µM; in the assay on MDA-MB-435, 79.6 µM. Further, the TGI was found to be 40.9 µM in the assay on SF-268 CNS, 41.3 µM in the assay on SF-295 CNS and 36.6 µM in the assay on UACC-257 melanoma.
For the compound `CC(C)c1ccc(NC(=S)NC(=O)c2ccccc2)cc1`, the TGI in the assay with A498 renal was 74.1 µM; in the assay with CAKI-1 renal it was 55.5 µM; in the assay on COLO 205 colon, 33.6 µM; in the assay with K-562 leukemia, above 100 µM; in the assay on MALME-3M melanoma, 69.8 µM; in the assay on MDA-MB-435, 28.1 µM. For the same compound, the TGI in the assay with SF-268 CNS is 46.4 µM; in the assay with SF-295 CNS it was 32.5 µM; in the assay with UACC-257 melanoma, 37.5 µM.
In the case of `CSc1ncnc2c1CCN2`, the GI50 in the assay with COLO 205 colon, with MALME-3M melanoma, in the assay with SF-268 CNS, in the assay with SF-295 CNS and with UACC-257 melanoma was above 100 µM throughout. The TGI is above 100 µM with COLO 205 colon; above 100 µM in the assay with MALME-3M melanoma; 6.04 µM in the assay with MDA-MB-435; above 100 µM in the assay on SF-268 CNS; above 100 µM in the assay on SF-295 CNS; above 100 µM in the assay with UACC-257 melanoma.
As to `OCC(O)C(O)C(O)/C=N/Nc1nc2ccccc2nc1-c1ccccc1` (stereo not drawn), the GI50 in the assay with A498 renal was above 100000 nM; in the assay on CAKI-1 renal it was 87.9 µM; in the assay with COLO 205 colon, 51.6 µM; in the assay with K-562 leukemia, 68.9 µM; in the assay with MALME-3M melanoma, above 100 µM; in the assay with MDA-MB-435 it was above 100 µM. Besides, the GI50 in the assay on SF-268 CNS was 74.1 µM; in the assay with SF-295 CNS, above 100 µM; in the assay on UACC-257 melanoma, above 100 µM. Besides, the TGI in the assay with A498 renal, with CAKI-1 renal, in the assay with COLO 205 colon, with K-562 leukemia, in the assay with MALME-3M melanoma and with MDA-MB-435 was above 100 µM in each case. For the same compound, the TGI in the assay with SF-268 CNS, in the assay with SF-295 CNS and in the assay on UACC-257 melanoma was above 100 µM each time.
For the compound `COC(=O)C1C(OCc2ccccc2)C2CCC1(OC)C=C2C` (stereo not drawn), the TGI with A498 renal, in the assay with CAKI-1 renal, with COLO 205 colon, in the assay with K-562 leukemia, with MALME-3M melanoma and with SF-268 CNS was above 100 µM each time. Also, the TGI was above 100 µM with SF-295 CNS, 66.6 µM with SR leukemia and above 100 µM with UACC-257 melanoma.
As for `COc1ccc2c(c1)/C(=C/c1cc(OC)c(OC)c(OC)c1)C(=O)N2C`, the GI50 was 2500 nM with A498 renal; 2.41 µM in the assay with CAKI-1 renal; 1.83 µM in the assay with COLO 205 colon; 1.12 µM in the assay on K-562 leukemia; 2.87 µM with MALME-3M melanoma; 2.39 µM in the assay on SF-268 CNS. Further, the GI50 in the assay with SF-295 CNS was 2.78 µM; in the assay on SR leukemia it was 634 nM; with UACC-257 melanoma it was 7.88 µM. Further, the TGI was 5.92 µM in the assay on A498 renal; above 27.4 µM in the assay on CAKI-1 renal; 3.68 µM in the assay on COLO 205 colon; above 46.5 µM in the assay on K-562 leukemia; above 29.2 µM with MALME-3M melanoma; 6.72 µM in the assay on SF-268 CNS. The total growth inhibition concentration (TGI) is above 100 µM in the assay on SF-295 CNS, 3.28 µM with SR leukemia and above 80.4 µM in the assay on UACC-257 melanoma.
`O=C1CS/C(=N\S(=O)(=O)c2ccc(N3N=C4c5ccccc5CC4C3c3ccc(Cl)cc3)cc2)N1c1ccccc1` (stereo not drawn): the GI50 in the assay with A498 renal was 25600 nM; with CAKI-1 renal, 35.8 µM; in the assay with COLO 205 colon, 1.73 µM; with K-562 leukemia it was 18.7 µM; in the assay on MDA-MB-435, 30.6 µM; with SF-268 CNS it was 22.7 µM. Also, the GI50 with SF-295 CNS was 35.8 µM; in the assay with SR leukemia, 11400 nM; in the assay on UACC-257 melanoma, 92.9 µM. Besides, the TGI in the assay with A498 renal is 53 µM; in the assay with CAKI-1 renal, above 100 µM; in the assay with COLO 205 colon it was 16 µM; with K-562 leukemia it was 40.3 µM; in the assay with MDA-MB-435, 88.8 µM; with SF-268 CNS, 84.8 µM. Also, the TGI in the assay on SF-295 CNS is 98.7 µM; with SR leukemia, 28.1 µM; in the assay with UACC-257 melanoma it was above 100 µM.

As a reminder, the GI50 is the concentration that inhibits growth by half. Usually TGI stands for the concentration giving total growth inhibition.
